Data from patent publication US20260216335A1, “COMPOSITIONS AND METHODS FOR TARGETING AND TREATING TUMOR” (JIANGSU CODE BIOMEDICAL TECHNOLOGY CO., LTD., priority 2023, published 2026).

Legend:
Format in all cases: physicochemical
[1] = Photothermal conversion under continuous 808 nm laser irradiation, 1.5 W/cm^2; details: 808 nm NIR laser
Description: DdH2O, blank nanoparticles, 0.012 mg/mL free ICG, nanoparticles containing ICG and Fe3O4 (concentration of ICG is 0.012 mg/mL) and nanoparticles containing ICG and oleic acid modified Fe3O4 were continuously irradiated at 1.5 W/cm2 by 808 nm laser emitter. […] Then, PLGA nanoparticles coated with oleic acid modified Fe3O4 and free oleic acid modified Fe3O4 were irradiated continuously. […] But the heat production capacity is low. Then, we used intermittent irradiation method, every 3 minutes to raise the temperature to the highest point, and stopped the irradiation for 7 minutes to bring the temperature back to room temperature until the temperature no longer increased.
To evaluate its photothermal conversion performance, ICG/OA-Fe3O4@PLGA solutions were irradiated with an 808 nm NIR laser (1.5 W/cm^2, FIGS. 3A-3C). […] No significant temperature changes were found in Blank-NP solution and DI water. Only negligible temperature increase of Blank-NP solution and DI water were found.

[2] = Photothermal heating under 808 nm NIR laser, 1.0 W/cm^2 for 10 min; details: 1.0 W/cm^2, 10 min, 1 mL aqueous, 12 μg/mL ICG or 11.6 μg/mL Fe
Description: To synthesize an effectiveness photothermal agents, we explore the synergistic effect of ICG and OA-Fe3O4. Various photothermal agents were exposed to 808 nm NIR laser irradiation with a power density of 1.0 W/cm^2 for 10 min. Aqueous suspensions of ICG/OA-Fe3O4@NPs, mixture of free ICG and OA-Fe3O4 (1 mL solution with 12 μg/mL ICG or 11.6 μg/mL Fe) reach the maximum temperatures of 45.9° C., 46.6° C.

[3] = Photothermal stability, laser ON 3 min / OFF 7 min cycles; details: NIR laser 3 min ON, 7 min OFF
Description: DdH2O, blank nanoparticles, 0.012 mg/mL free ICG, nanoparticles containing ICG and Fe3O4 (concentration of ICG is 0.012 mg/mL) and nanoparticles containing ICG and oleic acid modified Fe3O4 were continuously irradiated at 1.5 W/cm2 by 808 nm laser emitter. […] Then, PLGA nanoparticles coated with oleic acid modified Fe3O4 and free oleic acid modified Fe3O4 were irradiated continuously.
ICG@NPs, free ICG, ICG/OA-Fe3O4@NPs, free ICG/OA-Fe3O4 were irradiated with the NIR laser for 3 min (Laser ON), followed by natural cooling for 7 min (Laser OFF).
Furthermore, to investigate the photothermal conversion stability of ICG/OA-Fe3O4@PLGA for practical applications, solutions of ICG/OA-Fe3O4@PLGA, ICG/Fe3O4@PLGA, ICG@PLGA, Blank-NPs and free ICG were irradiated with the NIR laser for 3 min (Laser ON), followed by natural cooling for 7 min (Laser OFF).

time high temperature was maintained [1]: only a few minutes | temperature reached by the solution ([1]; 500 μg mL-1): 47.3 °C | maximum temperature [2]: 41.8 °C | maxim temperature, laser ON/OFF cycle 1 ([3]; 1st of six cycles): 40.9 °C | maxim temperature, laser ON/OFF cycle 2 ([3]; 2nd of six cycles): 37.1 °C | maxim temperature, laser ON/OFF cycle 3 ([3]; 3rd of six cycles): 33.8 °C | maxim temperature, laser ON/OFF cycle 4 ([3]; 4th of six cycles): 32.8 °C | maxim temperature, laser ON/OFF cycle 5 ([3]; 5th of six cycles): 30.7 °C | maxim temperature, laser ON/OFF cycle 6 ([3]; 6th of six cycles): 30.1 °C
SMILES: CC1(C)C(/C=C/C=C/C=C/C=C2\N(CCCCS(=O)(=O)O)c3ccc4ccccc4c3C2(C)C)=[N+](CCCCS(=O)(=O)[O-])c2ccc3ccccc3c21 [free ICG, Indocyanine green]
